Laboratory results reported in patent US11478493B2, “Fabrication and application of a hetero-targeted nano-cocktail with traceless linkers” (priority 2019, dated 2022).

Test system: SKOV-3 cells
Test: Cytotoxicity assay (MTT) against SKOV-3 cells
Assay type: cell-based, Human
Conditions: SKOV-3, 72 hours
Description: Human ovarian cancer cells, SKOV-3 and SKOV-3/Luc cells, were cultured in GIBCO™ DMEM supplemented with 10% FBS, 100 units/mL penicillin, and 100 μg/mL streptomycin at 37° C. in […] culture flasks under a humidified atmosphere of 5% CO2. Cells were sub-cultured when the cell confluence reached ˜80%.
The anticancer activities of polymer nanogels against SKOV-3 cells were evaluated by MTT assay. Cells were seeded in 96-well plates at a density of 5,000 cells/well for 24 hours prior to the test at 37° C. with 5% CO2. Then the cells were treated with varying concentrations of PTX/DOX or polymer nanogels in fresh medium and further incubated for 72 hours. In the control group, cells were allowed to grow without any treatment. After that, the medium was replaced with 100 μL fresh medium containing MTT reagent (final concentration 1 mg/mL) and cells were further incubated for 4 hours. The purple MTT crystal was dissolved with 100 μL MTT stop solution and the optical density at 595 nm was recorded on a microplate reader (ELx808™ Absorbance Microplace Reader, Bio-Tech Instrument, Inc.).

Structure (SMILES)	IC50 (Homo sapiens, SK-OV-3, PTX, PPP and PPPM nanogels)	IC50 (DOX, PPD and PPDA nanogels)
CC(=O)O[C@H]1C(=O)[C@@]2(C)[C@H]([C@H](OC(=O)c3ccccc3)[C@]3(O)C[C@H](OC(=O)[C@H](O)[C@@H](NC(=O)c4ccccc4)c4ccccc4)C(C)=C1C3(C)C)[C@]1(OC(C)=O)CO[C@@H]1C[C@@H]2O [PTX, paclitaxel]	30.6 nM	
COc1cccc2c1C(=O)c1c(O)c3c(c(O)c1C2=O)C[C@@](O)(C(=O)CO)C[C@@H]3O[C@H]1C[C@H](N)[C@H](O)[C@H](C)O1 [DOX, doxorubicin]		582 nM
